Drawing on patent US12180193B2, “Accelerating fibrosarcoma protein degrading compounds and associated methods of use” (Arvinas Operations, Inc., priority 2020, dated 2024), this text covers DC50 and Dmax for 13 compounds.

Like-named read-outs stand apart in the source and are kept apart here. Where only a bound is given, the exact number is not on record here.

In one assay the target is T1, BRAF V600E (Homo sapiens, UniProt P15056, V600E).
T1 construct: expressed in transfected cells
Nature of the assay: Cellular assay of target protein degradation, T-Rex 293 cells stably transfected with HA-BRAF_V600E (HA immunofluorescence, high content imaging). It is filed as cell-based. The method, boiled down:
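24 h compound exposure, 1 μM–0.1 nM final, 0.1% DMSO, 37 °C; cells induced with 1 ng/mL doxycycline. PFA fix, Triton permeabilize, anti-HA overnight 4 °C, Hoechst/phalloidin counterstain. Output: DC50, Dmax as % control.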

The target of a further assay is T2, BRAF G466V (Homo sapiens, UniProt P15056, G466V).
T2 construct: expressed in transfected cells
Nature of the assay: Cellular assay of target protein degradation, T-Rex 293 cells stably transfected with HA-BRAF G466V (HA immunofluorescence, high content imaging). The assay is classed as cell-based. Summed up:
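24 h compound, 30 nM–3 pM final, 0.1% DMSO, 37° C; HA-BRAF G466V induced with 0.75 ng/mL doxycycline. PFA fix, Triton perm, anti-HA + Alexa fluor secondary, Hoechst/phalloidin counterstain; imaging. DC50, Dmax (% of control).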

[1] abbreviates: half maximal degradation, T-Rex 293 HA-BRAF V600E; read-out: BRaf V600E DC50.
[2] abbreviates: maximum degradation observed, T-Rex 293 HA-BRAF V600E.
[3] abbreviates: half maximal degradation, T-Rex 293 HA-BRAF G466V; read-out: BRaf G466V DC50.
Where [4] appears, read: maximum degradation observed, T-Rex 293 HA-BRAF G466V.

T1 sequence (P15056 whole entry V600E): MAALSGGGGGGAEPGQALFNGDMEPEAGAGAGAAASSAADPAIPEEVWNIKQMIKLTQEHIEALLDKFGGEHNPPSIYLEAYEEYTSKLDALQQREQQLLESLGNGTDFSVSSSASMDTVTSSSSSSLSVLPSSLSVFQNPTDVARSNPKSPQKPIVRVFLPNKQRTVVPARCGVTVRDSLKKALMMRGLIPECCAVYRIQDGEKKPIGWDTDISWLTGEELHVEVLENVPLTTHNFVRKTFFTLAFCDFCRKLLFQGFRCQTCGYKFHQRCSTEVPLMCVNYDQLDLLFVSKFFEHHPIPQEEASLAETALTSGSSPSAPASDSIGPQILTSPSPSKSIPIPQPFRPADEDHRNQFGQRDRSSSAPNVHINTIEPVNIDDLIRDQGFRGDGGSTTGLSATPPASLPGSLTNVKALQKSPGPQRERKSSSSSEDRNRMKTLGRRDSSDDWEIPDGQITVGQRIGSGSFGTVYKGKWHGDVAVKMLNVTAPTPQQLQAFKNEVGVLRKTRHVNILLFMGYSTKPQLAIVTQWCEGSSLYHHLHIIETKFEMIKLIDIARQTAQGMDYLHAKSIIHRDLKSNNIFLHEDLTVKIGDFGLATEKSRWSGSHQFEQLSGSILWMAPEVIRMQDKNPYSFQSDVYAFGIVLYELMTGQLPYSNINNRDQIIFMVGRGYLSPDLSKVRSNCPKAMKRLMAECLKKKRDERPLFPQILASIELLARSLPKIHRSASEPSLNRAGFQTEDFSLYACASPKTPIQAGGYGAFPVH
T2 sequence (P15056 whole entry G466V): as the sequence (P15056 whole entry V600E) above, with G466V, E600V counted along it

Usually DC50 stands for the concentration at which degradation of the target reaches its halfway point. A word on the Dmax: it is the greatest extent of degradation seen. Low values mean shallow degradation, high ones deep degradation. Consider `O=C1CC[C@@H](NC(=O)c2ccc(N3CCN(CCc4ccc(-c5cnc6[nH]cc(C(=O)c7c(F)ccc(NS(=O)(=O)N8CC[C@@H](F)C8)c7F)c6c5)cc4)CC3)cc2F)C(=O)N1` [Compound 28, 4-{4-[2-(4-{3-[2,6-difluoro-3-({[(3R)-3-fluoropyrrolidin-1-yl]sulfonyl}amino)benzoyl]-1H-pyrrolo[2,3-b]pyridin-5-yl}phenyl)ethyl]piperazin-1-yl}-N-[(3R)-2,6-dioxopiperidin-3-yl]-2-fluorobenzamide], for which the DC50 is 0.05 to 0.5 µM at BRAF V600E (setting [1]) and less than 0.001 µM at BRAF G466V (setting [3]). In addition, the Dmax on BRAF V600E (setting [2]) is more than 70%; on BRAF G466V (setting [4]), 35 to 70%.
Take `O=C1CC[C@H](NC(=O)c2ccc(N3CCC(CN4CC5(C4)CN(c4ccc(-c6cnc7[nH]cc(C(=O)c8c(F)ccc(NS(=O)(=O)N9CC[C@@H](F)C9)c8F)c7c6)cc4)C5)CC3)cc2F)C(=O)N1` [Compound 29, 4-(4-{[6-(4-{3-[2,6-difluoro-3-({[(3R)-3-fluoropyrrolidin-1-yl]sulfonyl}amino)benzoyl]-1H-pyrrolo[2,3-b]pyridin-5-yl}phenyl)-2,6-diazaspiro[3.3]heptan-2-yl]methyl}piperidin-1-yl)-N-[(3S)-2,6-dioxopiperidin-3-yl]-2-fluorobenzamide]: the DC50 lay within 0.005 to 0.05 µM at BRAF V600E (setting [1]) and 0.001 to 0.01 µM at BRAF G466V (setting [3]). The Dmax on BRAF V600E (setting [2]) and at BRAF G466V (setting [4]) was 35 to 70% throughout.
Take `O=C1CC[C@@H](NC(=O)c2ccc(N3CCC(CN4CC5(C4)CN(c4ccc(-c6cnc7[nH]cc(C(=O)c8c(F)ccc(NS(=O)(=O)N9CC[C@@H](F)C9)c8F)c7c6)cc4)C5)CC3)cc2F)C(=O)N1` [Compound 30, 4-(4-{[6-(4-{3-[2,6-difluoro-3-({[(3R)-3-fluoropyrrolidin-1-yl]sulfonyl}amino)benzoyl]-1H-pyrrolo[2,3-b]pyridin-5-yl}phenyl)-2,6-diazaspiro[3.3]heptan-2-yl]methyl}piperidin-1-yl)-N-[(3R)-2,6-dioxopiperidin-3-yl]-2-fluorobenzamide]: the results for the DC50 at BRAF V600E (setting [1]) and on BRAF G466V (setting [3]) were more than 0.5 µM and 0.01 to 0.03 µM, respectively. The compound also registered a Dmax on BRAF G466V (setting [4]) of less than 35%.
`O=C1CC[C@H](NC(=O)c2ccc(N3CC4(CN(CC5CCN(c6ccc(-c7cnc8[nH]cc(C(=O)c9c(F)ccc(NS(=O)(=O)N%10CC[C@@H](F)C%10)c9F)c8c7)cc6)CC5)C4)C3)cc2F)C(=O)N1` [Compound 31, 4-(6-{[1-(4-{3-[2,6-difluoro-3-({[(3R)-3-fluoropyrrolidin-1-yl]sulfonyl}amino)benzoyl]-1H-pyrrolo[2,3-b]pyridin-5-yl}phenyl)piperidin-4-yl]methyl}-2,6-diazaspiro[3.3]heptan-2-yl)-N-[(3S)-2,6-dioxopiperidin-3-yl]-2-fluorobenzamide]: the DC50 at BRAF V600E (setting [1]) was 0.005 to 0.05 µM; at BRAF G466V (setting [3]) it was less than 0.001 µM. Further, the Dmax on BRAF V600E (setting [2]) and at BRAF G466V (setting [4]) was 35 to 70% each time.
Take `O=C1CCC(N2Cc3cc(C(O)CN4CCN(c5ccc(-c6cnc7[nH]cc(C(=O)c8c(F)ccc(NS(=O)(=O)N9CC[C@@H](F)C9)c8F)c7c6)cc5)CC4)ccc3C2=O)C(=O)N1` (stereo partly drawn) [Compound 32, (3R)-N-(3-{5-[4-(4-{2-[2-(2,6-dioxopiperidin-3-yl)-1-oxo-2,3-dihydro-1H-isoindol-5-yl]-2-hydroxyethyl}piperazin-1-yl)phenyl]-1H-pyrrolo[2,3-b]pyridin-3-carbonyl}-2,4-difluorophenyl)-3-fluoropyrrolidine-1-sulfonamide]: the DC50 at BRAF V600E (setting [1]) was less than 0.005 µM; at BRAF G466V (setting [3]), 0.001 to 0.01 µM. For the same compound, the Dmax at BRAF V600E (setting [2]) and on BRAF G466V (setting [4]) was 35 to 70% throughout.
With `O=C1CC[C@H](NC(=O)c2ccc(C3CCN(CC4CCN(c5ccc(-c6cnc7[nH]cc(C(=O)c8c(F)ccc(NS(=O)(=O)N9CC[C@@H](F)C9)c8F)c7c6)cc5)CC4)CC3)cc2F)C(=O)N1` [Compound 33, 4-(1-{[1-(4-{3-[2,6-difluoro-3-({[(3R)-3-fluoropyrrolidin-1-yl]sulfonyl}amino)benzoyl]-1H-pyrrolo[2,3-b]pyridin-5-yl}phenyl)piperidin-4-yl]methyl}piperidin-4-yl)-N-[(3S)-2,6-dioxopiperidin-3-yl]-2-fluorobenzamide], the figures for the DC50 on BRAF V600E (setting [1]) and at BRAF G466V (setting [3]) were 0.005 to 0.05 µM and 0.001 to 0.01 µM, respectively. Also, the Dmax was more than 70% on BRAF V600E (setting [2]) and 35 to 70% at BRAF G466V (setting [4]).
Regarding `O=C1CC[C@H](N2Cc3cc(N4CCC(OC5CCN(c6ccc(-c7cnc8[nH]cc(C(=O)c9c(F)ccc(NS(=O)(=O)N%10CC[C@@H](F)C%10)c9F)c8c7)cc6)CC5)CC4)ccc3C2=O)C(=O)N1` [Compound 34, (3R)-N-{3-[5-(4-{4-[(1-{2-[(3S)-2,6-dioxopiperidin-3-yl]-1-oxo-2,3-dihydro-1H-isoindol-5-yl}piperidin-4-yl)oxy]piperidin-1-yl}phenyl)-1H-pyrrolo [2,3-b]pyridine-3-carbonyl]-2,4-difluorophenyl}-3-fluoropyrrolidine-1-sulfonamide], the DC50 at BRAF V600E (setting [1]) lay within 0.05 to 0.5 µM; at BRAF G466V (setting [3]), 0.001 to 0.01 µM. For the same compound, the Dmax on BRAF V600E (setting [2]) and on BRAF G466V (setting [4]) was 35 to 70% in each case.
`O=C1CC[C@@H](N2Cc3cc(N4CCC(OC5CCN(c6ccc(-c7cnc8[nH]cc(C(=O)c9c(F)ccc(NS(=O)(=O)N%10CC[C@@H](F)C%10)c9F)c8c7)cc6)CC5)CC4)ccc3C2=O)C(=O)N1` [Compound 35, (3R)-N-{3-[5-(4-{4-[(1-{2-[(3R)-2,6-dioxopiperidin-3-yl]-1-oxo-2,3-dihydro-1H-isoindol-5-yl}piperidin-4-yl)oxy]piperidin-1-yl}phenyl)-1H-pyrrolo [2,3-b]pyridine-3-carbonyl]-2,4-difluorophenyl}-3-fluoropyrrolidine-1-sulfonamide]: the 50% degradation concentration (DC50) at BRAF V600E (setting [1]) lay within 0.005 to 0.05 µM; on BRAF G466V (setting [3]), 0.001 to 0.01 µM. For the same compound, the Dmax on BRAF V600E (setting [2]) was 35 to 70%; at BRAF G466V (setting [4]), more than 70%.
Turning to `O=C1CCC(N2Cc3cc(C4CCN(CC5CCN(c6ccc(-c7cnc8[nH]cc(C(=O)c9c(F)ccc(NS(=O)(=O)N%10CC[C@@H](F)C%10)c9F)c8c7)cc6F)CC5)CC4)ccc3C2=O)C(=O)N1` (stereo partly drawn) [Compound 36, (3R)—N-[3-(5-[4-[4-([4-[2-(2,6-dioxopiperidin-3-yl)-1-oxo-3H-isoindol-5-yl]piperidin-1-yl]methyl)piperidin-1-yl]-3-fluorophenyl]-1H-pyrrolo[2,3-b]pyridine-3-carbonyl)-2,4-difluorophenyl]-3-fluoropyrrolidine-1-sulfonamide], the Dmax on BRAF V600E (setting [2]) and at BRAF G466V (setting [4]) was 35 to 70% in each case. Further, the DC50 on BRAF V600E (read-out: BRaf V600E DC50; half maximal degradation, T-Rex 293 HA-BRAF V600E) is 0.005 to 0.05 µM; on BRAF G466V (read-out: BRaf G466V DC50; half maximal degradation, T-Rex 293 HA-BRAF G466V), less than 0.001 µM.
Regarding `O=C1CC[C@@H](NC(=O)c2ccc(N3CC4(CN(CC5CCN(c6ccc(-c7cnc8[nH]cc(C(=O)c9c(F)ccc(NS(=O)(=O)N%10CC[C@@H](F)C%10)c9F)c8c7)cc6)CC5)C4)C3)cc2F)C(=O)N1` [Compound 37, 4-(6-{[1-(4-{3-[2,6-difluoro-3-({[(3R)-3-fluoropyrrolidin-1-yl]sulfonyl}amino)benzoyl]-1H-pyrrolo[2,3-b]pyridin-5-yl}phenyl)piperidin-4-yl]methyl}-2,6-diazaspiro[3.3]heptan-2-yl)-N-[(3R)-2,6-dioxopiperidin-3-yl]-2-fluorobenzamide], the DC50 on BRAF V600E (setting [1]) is 0.005 to 0.05 µM; at BRAF G466V (setting [3]), 0.001 to 0.01 µM. The Dmax at BRAF V600E (setting [2]) was less than 35%; on BRAF G466V (setting [4]), 35 to 70%.
For the compound `O=C1CC[C@H](N2Cc3cc(/C=C/CN4CC5(C4)CN(c4ccc(-c6cnc7[nH]cc(C(=O)c8c(F)ccc(NS(=O)(=O)N9CC[C@@H](F)C9)c8F)c7c6)cc4)C5)ccc3C2=O)C(=O)N1` [Compound 38, (3R)-N-{3-[5-(4-{6-[(2E)-3-{2-[(3S)-2,6-dioxopiperidin-3-yl]-1-oxo-2,3-dihdyro-1H-isoindol-5-yl}prop-2-en-1-yl]-2,6-diazaspiro[3.3]heptan-2-yl}phenyl)-1H-pyrrolo[2,3-b]pyridine-3-carbonyl]-2,4-difluorophenyl}-3-fluoropyrrolidine-1-sulfonamide], the DC50 on BRAF V600E (setting [1]) was 0.005 to 0.05 µM; on BRAF G466V (setting [3]), less than 0.001 µM. The Dmax on BRAF V600E (setting [2]) and at BRAF G466V (setting [4]) was 35 to 70% throughout.
Consider `O=C1CC[C@@H](N2Cc3cc(/C=C/CN4CC5(C4)CN(c4ccc(-c6cnc7[nH]cc(C(=O)c8c(F)ccc(NS(=O)(=O)N9CC[C@@H](F)C9)c8F)c7c6)cc4)C5)ccc3C2=O)C(=O)N1` [Compound 39, (3R)-N-{3-[5-(4-{6-[(2E)-3-{2-[(3R)-2,6-dioxopiperidin-3-yl]-1-oxo-2,3-dihydro-1H-isoindol-5-yl}prop-2-en-1-yl]-2,6-diazaspiro[3.3]heptan-2-yl}phenyl)-1H-pyrrolo[2,3-b]pyridine-3-carbonyl]-2,4-difluorophenyl}-3-fluoropyrrolidine-1-sulfonamide], for which the DC50 on BRAF V600E (setting [1]) is 0.005 to 0.05 µM; on BRAF G466V (setting [3]), less than 0.001 µM. Moreover, the Dmax at BRAF V600E (setting [2]) and on BRAF G466V (setting [4]) was 35 to 70% throughout.
On to `O=C1CC[C@H](N2Cc3cc(N4CCC(CN5CCN(c6ccc(-c7cnc8[nH]cc(C(=O)c9c(F)ccc(NS(=O)(=O)N%10CC[C@@H](F)C%10)c9F)c8c7)cc6)CC5)CC4)c(F)cc3C2=O)C(=O)N1` [Compound 40, (3R)-N-{3-[5-(4-{4-[(1-{2-[(3S)-2,6-dioxopiperidin-3-yl]-6-fluoro-1-oxo-2,3-dihydro-1H-isoindol-5-yl}piperidin-4-yl)methyl]piperazin-1-yl}phenyl)-1H-pyrrolo[2,3-b]pyridine-3-carbonyl]-2,4-difluorophenyl}-3-fluoropyrrolidine-1-sulfonamide], for which the DC50 on BRAF V600E (setting [1]) lay within 0.005 to 0.05 µM; at BRAF G466V (setting [3]), 0.001 to 0.01 µM. Besides, the Dmax at BRAF V600E (setting [2]) and at BRAF G466V (setting [4]) was 35 to 70% throughout.
